# Results published in ChEMBL document CHEMBL1201862, “PubChem BioAssay data set” (2004).
# Calls of active or inactive are those of the source.
# Legend:
# [1] = target: T1, DNA dC->dU-editing enzyme APOBEC-3G (Homo sapiens, UniProt Q9HC16); assay type: functional
# [2] = target: T2, DNA dC->dU-editing enzyme APOBEC-3A (Homo sapiens, UniProt P31941); test: Dose Response confirmation of small molecule APOBEC3A DNA Deaminase Inhibitors via a fluorescence-based single-stranded DNA deaminase assay. [Related pubchem assays (depositor defined):AID493011, AID493024]; assay type: functional
# T2 sequence (P31941 whole entry): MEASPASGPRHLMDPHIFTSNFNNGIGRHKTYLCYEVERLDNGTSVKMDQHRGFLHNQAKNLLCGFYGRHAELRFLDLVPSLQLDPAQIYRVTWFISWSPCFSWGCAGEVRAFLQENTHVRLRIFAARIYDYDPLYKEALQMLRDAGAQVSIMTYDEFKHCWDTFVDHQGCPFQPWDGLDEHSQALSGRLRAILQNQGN
# [3] = target: Glyceraldehyde-3-phosphate dehydrogenase (Homo sapiens, UniProt P04406)
# Chain of Glyceraldehyde-3-phosphate dehydrogenase (P04406 whole entry): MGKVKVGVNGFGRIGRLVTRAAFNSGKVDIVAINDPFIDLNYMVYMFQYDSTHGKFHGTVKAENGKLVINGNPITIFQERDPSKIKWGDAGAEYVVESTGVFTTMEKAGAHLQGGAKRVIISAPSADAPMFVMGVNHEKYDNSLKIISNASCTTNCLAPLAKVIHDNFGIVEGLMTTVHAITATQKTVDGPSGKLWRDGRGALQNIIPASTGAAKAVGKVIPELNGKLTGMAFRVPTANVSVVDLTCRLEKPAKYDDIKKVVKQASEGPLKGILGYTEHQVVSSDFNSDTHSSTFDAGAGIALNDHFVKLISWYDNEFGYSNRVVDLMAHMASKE
# cells [4] = assay type: functional
# [5] = Vero E6 cell cytotoxicity, dose response, cytotoxicity control for non-replicating M. tuberculosis project, secondary assay (AID 492998); assay type: functional, VeroE6; conditions: Vero C1008
# [6] = THP-1 cell cytotoxicity, dose response, cytotoxicity control for non-replicating M. tuberculosis project (AID 489025); assay type: functional
# [7] = target: T3, Acyl-homoserine lactone acylase PvdQ (Pseudomonas aeruginosa (strain LESB58), UniProt Q9I194); test: PvdQ acylase enzyme activity blockers – biochemical, fluorescence, plate reader and imaging, cherry-picks, dose response (AID 493231)
# T3 sequence (Q9I194 whole entry): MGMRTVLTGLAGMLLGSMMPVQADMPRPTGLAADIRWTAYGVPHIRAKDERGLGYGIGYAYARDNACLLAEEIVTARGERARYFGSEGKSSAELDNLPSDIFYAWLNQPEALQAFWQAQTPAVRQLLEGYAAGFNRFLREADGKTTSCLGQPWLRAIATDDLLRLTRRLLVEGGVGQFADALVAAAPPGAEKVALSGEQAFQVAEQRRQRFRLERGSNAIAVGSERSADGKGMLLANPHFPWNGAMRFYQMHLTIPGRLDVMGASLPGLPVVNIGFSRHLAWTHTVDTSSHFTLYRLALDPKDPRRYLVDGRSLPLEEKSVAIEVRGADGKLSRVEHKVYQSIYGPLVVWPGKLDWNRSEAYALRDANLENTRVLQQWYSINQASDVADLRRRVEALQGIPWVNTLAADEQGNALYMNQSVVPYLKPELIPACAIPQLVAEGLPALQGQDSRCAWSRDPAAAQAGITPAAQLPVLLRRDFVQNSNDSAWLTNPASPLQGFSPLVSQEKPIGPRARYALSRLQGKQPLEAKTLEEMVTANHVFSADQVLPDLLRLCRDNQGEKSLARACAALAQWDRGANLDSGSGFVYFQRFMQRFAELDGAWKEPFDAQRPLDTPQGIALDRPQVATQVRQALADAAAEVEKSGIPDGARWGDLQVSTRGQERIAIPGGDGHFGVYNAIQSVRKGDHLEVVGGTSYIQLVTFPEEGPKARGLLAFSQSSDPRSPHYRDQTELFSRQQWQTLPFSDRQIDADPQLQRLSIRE
# [8] = target: T4, Voltage-gated N-type calcium channel alpha-1B subunit/Amyloid beta A4 precursor protein-binding family A member 1 (Homo sapiens, UniProt Q00975+Q02410); test: disruptors of Mint-PDZ/N-type channel peptide interaction – biochemical, HTRF, SAR follow-up (AID 2489); assay type: functional
# T4 sequence (Q00975 whole entry): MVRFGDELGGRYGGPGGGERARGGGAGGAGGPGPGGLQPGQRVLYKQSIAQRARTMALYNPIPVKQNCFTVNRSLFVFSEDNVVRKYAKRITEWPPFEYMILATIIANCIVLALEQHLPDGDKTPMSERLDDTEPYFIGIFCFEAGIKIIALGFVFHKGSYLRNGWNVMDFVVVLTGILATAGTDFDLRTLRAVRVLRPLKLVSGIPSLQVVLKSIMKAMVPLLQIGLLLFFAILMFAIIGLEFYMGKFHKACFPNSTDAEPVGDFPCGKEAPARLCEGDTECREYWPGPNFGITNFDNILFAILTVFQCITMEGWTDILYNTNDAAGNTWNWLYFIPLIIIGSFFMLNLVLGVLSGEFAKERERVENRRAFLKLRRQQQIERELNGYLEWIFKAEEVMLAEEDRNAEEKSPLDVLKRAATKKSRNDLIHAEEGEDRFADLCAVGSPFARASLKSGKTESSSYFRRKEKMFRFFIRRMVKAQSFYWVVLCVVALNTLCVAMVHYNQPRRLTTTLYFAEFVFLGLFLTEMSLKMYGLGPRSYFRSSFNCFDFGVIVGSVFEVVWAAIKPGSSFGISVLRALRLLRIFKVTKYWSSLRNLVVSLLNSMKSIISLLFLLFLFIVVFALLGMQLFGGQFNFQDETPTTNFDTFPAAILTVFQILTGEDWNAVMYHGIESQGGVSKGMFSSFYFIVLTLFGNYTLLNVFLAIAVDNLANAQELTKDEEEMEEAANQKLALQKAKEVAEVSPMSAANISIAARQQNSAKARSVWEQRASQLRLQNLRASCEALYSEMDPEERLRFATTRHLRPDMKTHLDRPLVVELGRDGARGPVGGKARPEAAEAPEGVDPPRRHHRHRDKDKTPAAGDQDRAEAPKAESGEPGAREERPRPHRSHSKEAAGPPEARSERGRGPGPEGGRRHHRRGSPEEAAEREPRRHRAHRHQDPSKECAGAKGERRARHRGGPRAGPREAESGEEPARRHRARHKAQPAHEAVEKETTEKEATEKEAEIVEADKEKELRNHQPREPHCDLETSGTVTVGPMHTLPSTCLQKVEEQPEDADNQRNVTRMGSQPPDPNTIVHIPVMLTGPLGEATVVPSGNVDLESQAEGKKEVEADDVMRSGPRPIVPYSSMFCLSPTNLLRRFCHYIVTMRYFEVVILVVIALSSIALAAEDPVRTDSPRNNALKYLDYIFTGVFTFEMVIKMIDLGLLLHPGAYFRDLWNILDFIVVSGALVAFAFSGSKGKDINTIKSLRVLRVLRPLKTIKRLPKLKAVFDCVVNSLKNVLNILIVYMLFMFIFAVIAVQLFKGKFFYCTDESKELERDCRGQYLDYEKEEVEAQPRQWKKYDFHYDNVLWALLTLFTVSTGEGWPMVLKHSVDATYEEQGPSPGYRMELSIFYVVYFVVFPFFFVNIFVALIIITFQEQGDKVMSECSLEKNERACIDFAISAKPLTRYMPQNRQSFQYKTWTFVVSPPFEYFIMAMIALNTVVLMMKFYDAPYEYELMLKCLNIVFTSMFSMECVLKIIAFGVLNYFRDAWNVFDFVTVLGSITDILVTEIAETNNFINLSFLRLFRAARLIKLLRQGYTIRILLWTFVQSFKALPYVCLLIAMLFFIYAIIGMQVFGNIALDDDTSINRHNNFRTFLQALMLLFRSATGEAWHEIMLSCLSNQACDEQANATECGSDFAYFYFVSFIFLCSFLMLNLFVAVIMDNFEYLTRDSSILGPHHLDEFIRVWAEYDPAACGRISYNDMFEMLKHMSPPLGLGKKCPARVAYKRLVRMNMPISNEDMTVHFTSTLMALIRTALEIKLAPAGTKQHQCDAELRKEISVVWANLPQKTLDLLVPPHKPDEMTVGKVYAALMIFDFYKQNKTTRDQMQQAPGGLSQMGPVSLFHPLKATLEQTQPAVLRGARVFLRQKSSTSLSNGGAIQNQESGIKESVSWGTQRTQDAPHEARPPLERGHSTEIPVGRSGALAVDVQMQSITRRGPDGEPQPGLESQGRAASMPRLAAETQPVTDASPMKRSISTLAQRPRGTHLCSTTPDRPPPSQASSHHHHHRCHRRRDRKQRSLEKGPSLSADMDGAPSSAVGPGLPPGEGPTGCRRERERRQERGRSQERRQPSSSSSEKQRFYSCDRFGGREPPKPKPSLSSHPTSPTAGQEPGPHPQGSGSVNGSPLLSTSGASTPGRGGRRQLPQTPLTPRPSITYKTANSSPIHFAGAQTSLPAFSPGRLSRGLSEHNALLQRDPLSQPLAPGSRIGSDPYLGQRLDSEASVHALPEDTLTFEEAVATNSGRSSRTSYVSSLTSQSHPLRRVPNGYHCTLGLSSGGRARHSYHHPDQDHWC
# T4 sequence (Q02410 whole entry): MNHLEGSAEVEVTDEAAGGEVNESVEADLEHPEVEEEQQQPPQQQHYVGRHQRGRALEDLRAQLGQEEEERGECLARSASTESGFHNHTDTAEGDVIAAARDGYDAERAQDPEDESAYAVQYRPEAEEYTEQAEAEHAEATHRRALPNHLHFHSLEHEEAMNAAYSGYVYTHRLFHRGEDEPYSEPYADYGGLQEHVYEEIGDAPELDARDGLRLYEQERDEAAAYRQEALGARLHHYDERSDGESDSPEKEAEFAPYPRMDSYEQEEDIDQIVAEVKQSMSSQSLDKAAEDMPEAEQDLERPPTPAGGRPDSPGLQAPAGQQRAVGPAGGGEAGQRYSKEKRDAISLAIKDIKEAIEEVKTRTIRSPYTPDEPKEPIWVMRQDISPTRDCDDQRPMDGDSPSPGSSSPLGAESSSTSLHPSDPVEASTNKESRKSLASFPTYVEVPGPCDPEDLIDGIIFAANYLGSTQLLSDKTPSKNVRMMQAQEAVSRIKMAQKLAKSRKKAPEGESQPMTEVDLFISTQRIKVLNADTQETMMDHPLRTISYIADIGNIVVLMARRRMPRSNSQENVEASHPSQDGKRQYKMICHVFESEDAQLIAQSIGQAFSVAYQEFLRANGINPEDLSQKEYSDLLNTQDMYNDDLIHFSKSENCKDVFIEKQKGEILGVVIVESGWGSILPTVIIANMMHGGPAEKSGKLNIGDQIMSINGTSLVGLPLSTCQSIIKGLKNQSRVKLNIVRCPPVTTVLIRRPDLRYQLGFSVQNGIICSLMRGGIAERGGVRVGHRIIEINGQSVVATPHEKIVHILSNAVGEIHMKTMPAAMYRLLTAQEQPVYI
# [9] = target: T4, Voltage-gated N-type calcium channel alpha-1B subunit/Amyloid beta A4 precursor protein-binding family A member 1; test: disruptors of Mint-PDZ/N-type channel peptide interaction – biochemical, HTRF, set 2, SAR follow-up (AID 434980); assay type: functional
# [10] = target: T2, DNA dC->dU-editing enzyme APOBEC-3A; test: A3A deaminase inhibition for selectivity – biochemical, dose response (AID 504722); assay type: functional
# [11] = target: T1, DNA dC->dU-editing enzyme APOBEC-3G; test: Dose Response confirmation of small molecule APOBEC3G DNA Deaminase Inhibitors via a fluorescence-based single-stranded DNA deaminase assay. [Related pubchem assays (depositor defined):AID493012, AID493028]; assay type: functional
# [12] = target: Glucose-6-phosphate 1-dehydrogenase (Homo sapiens, UniProt P11413); test: inhibition of Homo sapiens G6PD, dose series – biochemical, fluorescence, selectivity assay for P. falciparum G6PD inhibitor project, dose response (AID 504792); assay type: functional
# Chain of Glucose-6-phosphate 1-dehydrogenase (P11413 whole entry): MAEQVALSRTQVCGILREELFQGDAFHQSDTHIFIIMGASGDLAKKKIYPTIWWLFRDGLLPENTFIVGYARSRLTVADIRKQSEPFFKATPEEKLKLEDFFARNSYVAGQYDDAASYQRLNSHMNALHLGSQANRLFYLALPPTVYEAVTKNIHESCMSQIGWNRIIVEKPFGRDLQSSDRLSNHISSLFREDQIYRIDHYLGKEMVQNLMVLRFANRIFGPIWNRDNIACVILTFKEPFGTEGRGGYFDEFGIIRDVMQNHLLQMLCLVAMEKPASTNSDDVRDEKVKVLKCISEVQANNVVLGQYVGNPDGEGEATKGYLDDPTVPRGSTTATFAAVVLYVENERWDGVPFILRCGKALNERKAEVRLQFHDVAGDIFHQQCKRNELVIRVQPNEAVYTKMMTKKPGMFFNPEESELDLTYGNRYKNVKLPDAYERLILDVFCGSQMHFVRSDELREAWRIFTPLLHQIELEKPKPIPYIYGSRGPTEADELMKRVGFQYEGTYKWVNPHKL
# [13] = target: T5, Heat shock factor protein 1 (Mus musculus, UniProt P38532); test: enhancement of HSF1-driven luciferase signal – cell-based, NIH3T3, luminescence, dose retest, confirmation (AID 435004); assay type: functional;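 note: stress induced by proteasome inhibitor MG132 added 30 min after compound; luciferase reporter driven by HSF1 response element in NIH3T3 cells; actives raise luminescence as potentiators of the MG132 stress response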
# T5 sequence (P38532 whole entry): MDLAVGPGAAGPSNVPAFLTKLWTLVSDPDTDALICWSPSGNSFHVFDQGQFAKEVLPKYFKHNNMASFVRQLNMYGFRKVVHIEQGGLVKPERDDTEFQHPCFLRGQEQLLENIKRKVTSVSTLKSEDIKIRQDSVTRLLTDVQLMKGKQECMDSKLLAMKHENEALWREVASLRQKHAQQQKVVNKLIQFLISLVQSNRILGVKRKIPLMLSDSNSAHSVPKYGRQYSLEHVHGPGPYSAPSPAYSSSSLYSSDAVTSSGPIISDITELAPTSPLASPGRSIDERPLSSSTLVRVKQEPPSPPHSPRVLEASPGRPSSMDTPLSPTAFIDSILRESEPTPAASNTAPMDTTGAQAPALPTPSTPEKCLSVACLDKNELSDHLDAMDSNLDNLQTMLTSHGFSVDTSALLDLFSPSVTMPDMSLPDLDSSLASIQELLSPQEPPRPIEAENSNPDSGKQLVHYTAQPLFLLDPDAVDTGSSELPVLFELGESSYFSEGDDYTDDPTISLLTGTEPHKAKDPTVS
# [14] = target: Peroxisome proliferator-activated receptor gamma/Nuclear receptor coactivator 1 (Homo sapiens, UniProt P37231); assay type: functional;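 note: agonist potency as compounds enhance coactivator SRC-1 recruitment to PPARgamma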
# [15] = target: Peroxisome proliferator-activated receptor gamma/Nuclear receptor coactivator 3 (Homo sapiens, UniProt P37231); assay type: functional;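 note: agonist potency for raising coactivator recruitment to the receptor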
# [16] = target: Peroxisome proliferator-activated receptor gamma/Nuclear receptor coactivator 2 (Homo sapiens, UniProt P37231); assay type: functional;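 note: agonist potency for raising coactivator recruitment to the receptor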
# [17] = viability loss in THP-1 monocytes – THP-1 cells, cytotoxicity control for Vif-APOBEC3G degradation inhibitor project, dose response (AID 1117359); assay type: functional; conditions: THP-1
# [18] = mitochondrial function rescue without frataxin homolog – Friedreich's ataxia, plus single-dose screen, dose response (AID 1465); assay type: functional;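 note: yeast depleted of Yfh1p frataxin homolog grown on glycerol needing respiration; WST-1 tetrazolium dye reduction as measure of cellular dehydrogenase metabolic activity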
# Leucine aminopeptidase = target: T6, Leucine aminopeptidase (Plasmodium falciparum 3D7, UniProt Q8IL11); test: P. falciparum M17LAP inhibitors, primary screen, biochemical, fluorogenic H-Leu-NHMec substrate, 1536-well (AID 1619); assay type: functional
# T6 sequence (Q8IL11 whole entry): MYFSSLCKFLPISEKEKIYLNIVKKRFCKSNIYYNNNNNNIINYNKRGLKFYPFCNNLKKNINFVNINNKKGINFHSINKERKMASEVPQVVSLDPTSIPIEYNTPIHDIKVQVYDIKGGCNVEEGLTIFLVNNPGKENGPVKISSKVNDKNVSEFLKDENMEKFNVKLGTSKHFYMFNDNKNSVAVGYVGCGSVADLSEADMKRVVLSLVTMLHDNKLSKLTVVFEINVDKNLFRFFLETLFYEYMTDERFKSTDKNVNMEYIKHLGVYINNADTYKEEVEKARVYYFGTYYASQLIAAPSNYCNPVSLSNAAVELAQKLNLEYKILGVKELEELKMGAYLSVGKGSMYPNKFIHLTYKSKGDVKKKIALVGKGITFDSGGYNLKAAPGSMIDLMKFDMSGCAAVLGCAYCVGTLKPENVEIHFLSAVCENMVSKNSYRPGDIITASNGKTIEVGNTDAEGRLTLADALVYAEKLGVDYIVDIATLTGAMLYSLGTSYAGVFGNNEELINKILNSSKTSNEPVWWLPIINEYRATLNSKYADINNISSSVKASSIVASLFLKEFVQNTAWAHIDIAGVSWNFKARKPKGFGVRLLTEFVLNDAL
# [19] = target: T4, Voltage-gated N-type calcium channel alpha-1B subunit/Amyloid beta A4 precursor protein-binding family A member 1; assay type: protein assay
# [20] = target: T4, Voltage-gated N-type calcium channel alpha-1B subunit/Amyloid beta A4 precursor protein-binding family A member 1; assay type: protein assay; remark: listed apart in the source
# [21] = target: Neurotensin receptor type 1 (Homo sapiens, UniProt P30989); assay type: functional;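 note: Image-based confirmatory dose-response assay measuring agonist activity at NTR1; NTR1-expressing U2OS osteosarcoma cells imaged for beta-arrestin GFP spot formation; agonist potency where compounds increase beta-arrestin recruitment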
# Chain of Neurotensin receptor type 1 (P30989 whole entry): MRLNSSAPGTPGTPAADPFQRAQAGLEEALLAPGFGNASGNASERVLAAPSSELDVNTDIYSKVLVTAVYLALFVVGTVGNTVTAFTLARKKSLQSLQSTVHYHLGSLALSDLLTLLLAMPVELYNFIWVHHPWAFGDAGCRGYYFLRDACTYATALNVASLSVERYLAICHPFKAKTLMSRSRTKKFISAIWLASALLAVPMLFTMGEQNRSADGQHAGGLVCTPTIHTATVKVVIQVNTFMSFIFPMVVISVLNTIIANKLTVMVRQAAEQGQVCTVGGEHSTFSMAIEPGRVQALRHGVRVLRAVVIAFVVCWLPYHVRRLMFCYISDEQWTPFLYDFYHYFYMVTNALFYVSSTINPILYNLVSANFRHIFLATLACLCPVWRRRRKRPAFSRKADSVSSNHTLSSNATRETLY
# cells [22] = test: cells
# [23] = target: T7, C-C chemokine receptor type 6 (Homo sapiens, UniProt P51684); test: antagonism of CCR6 beta-arrestin recruitment – cell-based, luminescent beta-arrestin readout, dose response (AID 504728); assay type: functional
# T7 sequence (P51684 whole entry): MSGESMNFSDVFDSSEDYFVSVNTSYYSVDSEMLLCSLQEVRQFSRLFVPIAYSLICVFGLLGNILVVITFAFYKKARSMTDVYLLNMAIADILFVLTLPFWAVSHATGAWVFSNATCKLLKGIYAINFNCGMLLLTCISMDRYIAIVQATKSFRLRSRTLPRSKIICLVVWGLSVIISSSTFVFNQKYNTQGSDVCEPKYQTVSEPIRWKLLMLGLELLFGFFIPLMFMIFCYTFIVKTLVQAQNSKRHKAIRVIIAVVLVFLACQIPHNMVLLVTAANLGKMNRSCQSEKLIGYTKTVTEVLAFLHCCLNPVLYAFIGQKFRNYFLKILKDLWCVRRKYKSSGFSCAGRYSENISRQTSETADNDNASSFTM
# Beta-galactosidase = Beta-galactosidase (Escherichia coli, UniProt Q8VNN2); test: detection-enzyme interference by beta-gal modulators – biochemical, E. coli enzyme, set 3, artefact control for CCR6 antagonist project, dose response (AID 504712); assay type: functional
# Hexokinase = target: T8, Hexokinase (Trypanosoma brucei, UniProt Q38C41); test: Confirmation assay for inhibitors of Trypanosoma brucei hexokinase 1-Analogue-first series. [Related pubchem assays (depositor defined):AID1430, AID1632, AID2516, AID2560, AID2579, AID2600, AID449725, AID492951]; assay type: functional
# T8 sequence (Q38C41 whole entry): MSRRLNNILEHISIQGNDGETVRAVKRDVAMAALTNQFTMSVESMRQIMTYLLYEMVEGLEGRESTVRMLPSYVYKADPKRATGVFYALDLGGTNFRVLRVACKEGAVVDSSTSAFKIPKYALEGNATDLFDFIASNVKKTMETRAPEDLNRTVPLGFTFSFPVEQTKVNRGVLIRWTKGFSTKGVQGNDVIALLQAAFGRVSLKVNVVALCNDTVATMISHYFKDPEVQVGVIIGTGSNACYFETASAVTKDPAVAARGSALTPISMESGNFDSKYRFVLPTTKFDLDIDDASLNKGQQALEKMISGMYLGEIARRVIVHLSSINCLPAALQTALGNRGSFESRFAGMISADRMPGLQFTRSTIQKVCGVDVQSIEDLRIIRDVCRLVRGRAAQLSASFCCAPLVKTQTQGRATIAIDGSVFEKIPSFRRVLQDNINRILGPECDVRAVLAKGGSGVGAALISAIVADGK
# T1 sequence (Q9HC16 whole entry): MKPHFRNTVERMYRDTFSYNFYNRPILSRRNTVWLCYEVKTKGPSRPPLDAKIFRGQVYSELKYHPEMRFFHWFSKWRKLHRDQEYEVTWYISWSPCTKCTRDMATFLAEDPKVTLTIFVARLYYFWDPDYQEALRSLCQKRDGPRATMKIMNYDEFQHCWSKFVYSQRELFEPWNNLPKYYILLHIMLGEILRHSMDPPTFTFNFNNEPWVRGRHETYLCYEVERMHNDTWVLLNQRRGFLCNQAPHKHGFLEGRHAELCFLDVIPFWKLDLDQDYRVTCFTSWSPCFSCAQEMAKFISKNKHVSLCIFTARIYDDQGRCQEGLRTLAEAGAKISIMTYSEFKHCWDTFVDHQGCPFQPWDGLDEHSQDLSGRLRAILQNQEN
structure (smiles),measurement,setting,value
CCOc1ccc(CN2C(=O)c3ccccc3C2=O)cc1C(=O)NC1CC(C)(C)NC(C)(C)C1,IC50,[1],3.18 µM (active)
same,IC50,[2],2.87 µM (active)
CCN1CCN(C2=C(Cl)C(=O)N(c3cccc(C(F)(F)F)c3)C2=O)CC1,IC50,[3],> 50 µM (inconclusive)
CC(C)CCCN1C(=O)NC(=O)/C(=C\c2ccc[nH]2)C1=O,IC50,cells [4],1.22 µM (active)
same,CC50,[5],> 20 µM (active)
same,CC50,[6],> 40 µM (active)
Cc1cc(C)cc(N2CC(c3nc4ccccc4n3C)CC2=O)c1 (stereo not drawn),IC50,[1],16.1 µM (active)
same,IC50,[2],9.16 µM (active)
N#CC(Sc1ccccn1)c1ccc(Cl)cc1 (stereo not drawn),AC50,[7],7.09 µM (active)
CC(=O)Oc1ccc(N2C(=O)C3C4C=CC(O4)C3C2=O)cc1 (stereo not drawn),IC50,[8],> 56.8 µM (inactive)
same,IC50,[9],18.8 µM (active)
O=C(NCCCN1CCOCC1)c1sc2cc([N+](=O)[O-])ccc2c1Cl,IC50,[10],> 100 µM (inactive)
same,IC50,[11],6.34 µM (active)
same,IC50,[12],> 80 µM (inactive)
N#Cc1ccc(-c2ccc(Cl)cc2)nc1Oc1ccc(F)cc1,EC50,[13],> 260 µM (inconclusive)
same,EC50,[14],> 79.4 µM (not active)
same,EC50,[15],> 79.4 µM (not active)
same,EC50,[16],> 79.4 µM (not active)
Oc1ccc(NCc2ccccc2OCc2ccccc2)cc1,EC50,[14],> 79.4 µM (not active)
same,CC50,[17],22.7 µM (active)
same,IC50,[12],> 80 µM (inactive)
same,EC50,[15],> 79.4 µM (not active)
same,EC50,[16],> 79.4 µM (not active)
CCN1CCN(c2ccc(NC(=O)c3ccc4c(c3)OCCO4)cc2C)CC1,IC50,[1],4.12 µM (active)
same,IC50,[2],4.49 µM (active)
COCCNC(=O)/C(C#N)=C/c1ccc(N2CCOCC2)o1,EC50,[18],> 100 µM (active)
same,IC50,Leucine aminopeptidase,113 µM (active)
CC(C)NC(=O)COC(=O)/C=C/c1ccco1,IC50,[19],> 50 µM (inactive)
same,IC50,[20],9.71 µM (active)
O=C(/C=C/c1cccnc1)c1ccc(F)c(F)c1,EC50,[21],11.4 µM (active)
Cc1ccc(-n2c(=O)c3sccc3n(Cc3cc(=O)n4ccccc4n3)c2=O)cc1,IC50,cells [22],26.4 µM (active)
COc1ccc(NC2c3ncccc3C(=O)N2Cc2cccs2)cc1 (stereo not drawn),IC50,cells [22],45.6 µM (active)
CC1(C)C2CC[C@]3(C)C(CC=C4[C@@H]5C[C@@](C)(CO)[C@@H]6C[C@@]5(CC[C@]43C)C(=O)O6)[C@@]2(C)CC[C@@H]1O (stereo partly drawn),IC50,[23],> 66.6 µM (inactive)
same,IC50,Beta-galactosidase,> 66.6 µM (inactive)
O=C(Nc1cc(Cl)ccc1C(=O)O)c1ccc(C2CC2)cc1,IC50,Hexokinase,5.77 µM (active)
COc1ccc2c(=O)n(-c3ccccc3)sc2c1,IC50,Hexokinase,3 µM (active)
Cc1cccc(N2C(=O)C3C(C2=O)C2(C)C=CC3(C)O2)c1 (stereo not drawn),IC50,[8],27.6 µM (active)
same,IC50,[9],8.93 µM (active)
CCCCCCCC(=O)Nc1cc(Cl)ccc1C(=O)O,IC50,Hexokinase,> 25 µM (inactive)
Cc1ccsc1/C=N/n1c(S)nnc1-c1ccccn1,IC50,[10],> 100 µM (inactive)
same,IC50,[11],4.89 µM (active)
COc1ccc(/N=C(\C)C2=C(O)SCC2=O)cc1,AC50,[7],12.4 µM (active)
COc1cc(C)c(C)cc1S(=O)(=O)Nc1cccnc1,IC50,[3],> 100 µM (not active)
